Results from US9527836B2, “Crystal having specific crystal habit and pharmaceutical composition containing the crystal as active ingredient” (POLA PHARMA INC., priority 2013, dated 2016).

Experiments:
[1] = Tablet hardness measurement with hardness meter PTB311; type: physicochemical; settings: tablet of 50% by mass lactose and 50% by mass luliconazole, tablet making pressure 1 ton/cm^2, 9 mmφ, average of six samples
Protocol: A tablet was manufactured in accordance with a formulation shown in Table 5 below, and the hardness was measured. PTB311 (produced by Pharma Test GmbH) was used as a hardness meter. As for the tablet making condition, the tablet making was performed at a tablet making pressure of 1 ton/cm^2 by using a pestle and a mortar of 9 mmφ. In Comparative Example, the operation was performed in the same manner as described above by using the crystal (Comparative Example 1) obtained by performing the recrystallization with n-hexane-ethyl acetate.

[2] = test system: Trichomonas vaginalis (clinically isolated strain); experiment: Direct effect on Trichomonas vaginalis culture, number of individuals counted on a hemocytometer; type: cell-based; settings: 5.08 mg solid crystal added to Trichomonas medium F; culture of 3.93×10^5 individuals/mL; cultured at 37° C. for 4 days
Protocol: The direct effect of luliconazole was investigated by using Trichomonas vaginalis (clinically isolated strain). That is, there were prepared a sample in which 5.08 mg of luliconazole of Comparative Example 1 recrystallized from n-hexane and ethyl acetate was added to “Trichomonas medium F” (produced by Fuji Pharma Co., Ltd.), a sample in which 5.08 mg of the crystal of Example 2 was added, and a sample (control) in which 5 μL of water was added. […] of a culture of Trichomonas vaginalis of 3.93×10^5 individuals/mL was added thereto, followed by being cultured at 37° C. for 4 days, and the number of individuals of Trichomonas was counted on a hemocytometer. A significant difference was confirmed at a significance level of not more than 1% among the three samples. Accordingly, it is appreciated that the crystal of the present invention is excellent in the solid-state reactivity.

[3] = Dissolution state in ethanol, visually confirmed; type: physicochemical; settings: 20 mg crystal in 2 ml ethanol, stationarily placed at 30° C. for 2 hours
Protocol: 20 mg of each of the crystals was weighed, to which 2 ml of ethanol was added, followed by being stored by stationarily placed at 30° C. for 2 hours. The dissolution state was visually confirmed. Accordingly, it is appreciated that the crystal of the present invention is easily dissolved in the polar solvent.

[4] = listed as crystal of Comp. Ex. 1

SMILES	Hardness [1, 4] [N]	number of individuals of Trichomonas (Average) [2]	Dissolution state [3, 4]	Dissolution state ([3]; listed as crystal of Example 1)	Hardness ([1]; listed as crystal of Example 2) [N]	Dissolution state ([3]; listed as crystal of Example 2)
N#C/C(=C1/SC[C@@H](c2ccc(Cl)cc2Cl)S1)n1ccnc1 [Comp. Ex. 1, luliconazole, reference compound]	29.1 ± 3.0	376000	crystal was found at bottom	–	–	–
N#C/C(=C1/SC[C@@H](c2ccc(Cl)cc2Cl)S1)n1ccnc1 [Example 1, luliconazole]	–	–	–	no crystal was found	–	–
N#C/C(=C1/SC[C@@H](c2ccc(Cl)cc2Cl)S1)n1ccnc1 [Example 2, luliconazole]	–	256000	–	–	73.7 ± 4.2	no crystal was found
